Source: US10550102B2, “Indane and indoline derivatives and the use thereof as soluble guanylate cyclase activators” (NOVARTIS AG, priority 2014, dated 2020)

What follows are compounds tested against soluble guanylate cyclase (human GUCYA3 and GUCYB3) overexpressed in CHO cells (Homo sapiens (Human), UniProt Q02108+Q02153) (assay: CHO cellular assay (cGMP production, Cisbio cGMP HTRF kit)). Conditions: CHO GUCY clone 8E10, cGMP production, assay buffer with 1 mM IBMX and 20 uM ODQ, 1 h room temperature; minimum quantification limit 0.5 nM (listed 0.5 nM means ≤0.5 nM); read-out: EC50.
Assay type: cell-based
Excerpt: Chinese hamster ovary (CHO) cells overexpressing soluble guanylate cyclase were generated to test the effect of sGC activators in a cellular context. Human cDNAs for GUCYA3 (RefSeq: NM_000856.3) and GUCYB3 (RefSeq: NM_000857.1) were amplified by PCR from a HUVEC (Human Umbilical Vein Endothelial Cells) cDNA library and cloned into mammalian expression vectors. CHO K1 cells (ATCC CCL-61) were transfected using Lipofectamine 2000 following manufacturer's instructions and stably expressing clones were identified by antibiotic selection. CHO GUCY clone 8E10 was used for subsequent experiments. Cells were seeded at a density of 3000 cells/well in white 384-well proxyplates (Perkin Elmer) and incubated overnight, then the medium was removed and cells were washed with assay buffer (HBSS, 0.1% BSA. 1 mM IBMX, 20 uM ODQ). sGC activators were serially diluted in DMSO, then diluted in assay buffer prior to adding to cells (10 ul/well, final DMSO concentration 0.5%). Cells were incubated with compounds for 1 h room temperature, then assayed for cGMP production using Cisbio cGMP HTRF kit (62GM2PEC) according to manufacturer's instructions. The EC50s are calculated based on the amount of cGMP interpolated from the standard curve, using a 4-parameter sigmoidal dose-response.

Chain of soluble guanylate cyclase (human GUCYA3 and GUCYB3) overexpressed in CHO cells (Q02108 whole entry partner): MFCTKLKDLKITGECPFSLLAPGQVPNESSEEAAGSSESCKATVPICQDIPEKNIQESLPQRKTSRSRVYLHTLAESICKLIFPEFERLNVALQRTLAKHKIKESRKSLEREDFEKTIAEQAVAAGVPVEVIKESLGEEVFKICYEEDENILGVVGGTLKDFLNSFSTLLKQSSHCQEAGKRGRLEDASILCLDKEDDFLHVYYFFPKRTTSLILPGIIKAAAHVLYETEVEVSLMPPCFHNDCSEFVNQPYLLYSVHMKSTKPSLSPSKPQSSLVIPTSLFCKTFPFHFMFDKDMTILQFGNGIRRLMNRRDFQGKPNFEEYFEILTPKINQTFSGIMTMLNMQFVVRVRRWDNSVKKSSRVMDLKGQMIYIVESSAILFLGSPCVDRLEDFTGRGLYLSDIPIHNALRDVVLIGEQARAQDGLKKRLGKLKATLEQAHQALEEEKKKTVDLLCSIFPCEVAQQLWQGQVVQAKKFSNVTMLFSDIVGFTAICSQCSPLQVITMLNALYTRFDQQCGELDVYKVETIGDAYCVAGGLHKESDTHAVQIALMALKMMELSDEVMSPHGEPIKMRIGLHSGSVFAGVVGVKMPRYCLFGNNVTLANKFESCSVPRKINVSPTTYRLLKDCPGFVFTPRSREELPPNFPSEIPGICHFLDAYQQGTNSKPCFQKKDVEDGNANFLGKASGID
Chain of soluble guanylate cyclase (human GUCYA3 and GUCYB3) overexpressed in CHO cells (Q02153 whole entry): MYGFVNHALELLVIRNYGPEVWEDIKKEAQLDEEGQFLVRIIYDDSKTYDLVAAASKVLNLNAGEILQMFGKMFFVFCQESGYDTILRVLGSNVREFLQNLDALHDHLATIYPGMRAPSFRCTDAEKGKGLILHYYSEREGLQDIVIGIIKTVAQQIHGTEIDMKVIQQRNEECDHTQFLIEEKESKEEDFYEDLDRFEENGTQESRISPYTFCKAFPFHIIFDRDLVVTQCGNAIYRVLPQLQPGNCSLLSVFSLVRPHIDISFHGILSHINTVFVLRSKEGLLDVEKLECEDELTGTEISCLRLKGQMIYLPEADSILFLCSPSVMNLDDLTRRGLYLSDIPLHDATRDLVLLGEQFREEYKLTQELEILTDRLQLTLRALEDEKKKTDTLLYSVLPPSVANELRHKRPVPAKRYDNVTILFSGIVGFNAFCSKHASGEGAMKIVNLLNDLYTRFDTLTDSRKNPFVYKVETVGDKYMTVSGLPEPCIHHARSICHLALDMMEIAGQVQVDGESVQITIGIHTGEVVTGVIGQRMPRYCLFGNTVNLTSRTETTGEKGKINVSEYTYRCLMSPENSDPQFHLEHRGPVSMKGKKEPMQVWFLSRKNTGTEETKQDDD

Row | EC50 | Structure (SMILES)
1 | 1 nM | Cc1cc2c(c(-c3cccc(-n4ncc(C(=O)O)c4C(F)(F)F)n3)c1)C(Nc1ccc(C3CCN(C(=O)C4CC4)CC3)cc1C)CC2 (racemic) [Example 11-1, (±)-1-(6-(3-((4-(1-(cyclopropanecarbonyl)piperidin-4-yl)-2-methylphenyl)amino)-6-methyl-2,3-dihydro-1H-inden-4-yl)pyridin-2-yl)-5-(trifluoromethyl)-1H-pyrazole-4-carboxylic acid]
2 | ≤ 0.5 nM | Cc1cc(C2CCN(C(=O)C3CC3)CC2)ccc1NC1CCc2cccc(-c3cccc(-n4ncc(C(=O)O)c4C)c3)c21 (racemic) [Example 11-4, (±)-1-(3-(3-((4-(1-(cyclopropanecarbonyl)piperidin-4-yl)-2-methylphenyl)amino)-2,3-dihydro-1H-inden-4-yl)phenyl)-5-methyl-1H-pyrazole-4-carboxylic acid]
3 | 1 nM | Cc1cc(C2CCN(c3ccccn3)CC2)ccc1NC1CCc2cccc(-c3cccc(-n4ncc(C(=O)O)c4C)n3)c21 (racemic) [Example 59, (±)-Methyl-16-(3-((2-methyl-4-(1-(pyridin-2-yl)piperidin-4-yl)phenyl)amino)-2,3-dihydro-1H-inden-4-yl)pyridin-2-yl)-1H-pyrazole-4-carboxylic Acid]
4 | 5.3 nM | Cc1cc(C2CCN(C3CC3)CC2)ccc1NC1CCc2cccc(-c3cccc(-n4ncc(C(=O)O)c4C)n3)c21 (racemic) [Example 60, (±)-1-(6-(3-(4-(1-Cyclopropylpiperidin-4-yl)-2-methylphenyl)amino)-2,3-dihydro-1H-inden-4-yl)pyridin-2-yl)-5-methyl-1H-pyrazole-4-carboxylic Acid]
5 | 6 nM | Cc1cc(C2CCN(C(=O)C3CC3)CC2)cnc1NC1CCc2cccc(-c3cccc(-n4ncc(C(=O)O)c4C)n3)c21 (racemic) [Example 62, (±)-1-(6-(3-((5-(1-Cyclopropanecarbonyl)piperidin-4-yl)-3-methylpyridin-2-yl)amino)-2,3-dihydro-1H-inden-4-yl)pyridin-2-yl)-5-methyl-1H-pyrazole-4-carboxylic Acid]
6 | 1 nM | CCC(=O)N1CCC(c2ccc(NC3CCc4cccc(-c5cccc(-n6ncc(C(=O)O)c6C)n5)c43)c(C)c2)CC1 (single isomer, unassigned) [(+)-46-2, (−)-5-Methyl-1-(6-(3-((2-methyl-4-(1-propionylpiperidin-4-yl)phenyl)amino)-2,3-dihydro-1H-inden-4-yl)pyridin-2-yl)-1H-pyrazole-4-carboxylic acid]
7 | ≤ 0.5 nM | CCc1cc(CN2CC(C)c3cccc(-c4cccc(-n5ncc(C(=O)O)c5CC)n4)c32)ccc1C1CCN(C(=O)[C@H](C)O)CC1 (single isomer, unassigned) [Example 17a]
8 | ≤ 0.5 nM | CCc1cc(O[C@H]2CCc3cccc(-c4cccc(-n5ncc(C(=O)O)c5CC)n4)c32)ccc1C1CCN(C(=O)C(C)CCO)CC1 (single isomer, unassigned) [Example 32a]
9 | 1.4 nM | Cc1c(NC2CCc3cccc(-c4cccc(-n5ncc(C(=O)O)c5C)n4)c32)ccc(C2CCN(C(=O)CC3CC3)CC2)c1F (single isomer, unassigned) [Example (+) or (−)-46-4, 1-(6-(3-((4-(1-(2-cyclopropylacetyl)piperidin-4-yl)-3-fluoro-2-methylphenyl)amino)-2,3-dihydro-1H-inden-4-yl)pyridin-2-yl)-5-methyl-1H-pyrazole-4-carboxylic acid]
10 | 136 nM | Cc1c(NC2CCc3cccc(-c4cccc(-n5ncc(C(=O)O)c5C)n4)c32)ccc(C2CCN(C(=O)CC3CC3)CC2)c1F (single isomer, unassigned) [Example (−) or (+)-46-4, 1-(6-(3-((4-(1-(2-cyclopropylacetyl)piperidin-4-yl)-3-fluoro-2-methylphenyl)amino)-2,3-dihydro-1H-inden-4-yl)pyridin-2-yl)-5-methyl-1H-pyrazole-4-carboxylic acid]
11 | ≤ 0.5 nM | CCc1cc(CC2CCc3cccc(-c4cccc(-n5ncc(C(=O)O)c5CC)n4)c32)ccc1C1CCN(C(=O)C2CC2)CC1 (single isomer, unassigned; (+)) [38-1 (+), (+)-1-(6-(3-(4-(1-(cyclopropanecarbonyl)piperidin-4-yl)-3-ethylbenzyl)-2,3-dihydro-1H-inden-4-yl)pyridin-2-yl)-5-ethyl-1H-pyrazole-4-carboxylic acid]
12 | ≤ 0.5 nM | CCc1cc(CC2CCc3cccc(-c4cccc(-n5ncc(C(=O)O)c5C)n4)c32)ccc1C1CCN(C(=O)C2CC2)CC1 (single isomer, unassigned; (+)) [38-2 (+), (+)-1-(6-(3-(4-(1-(cyclopropanecarbonyl)piperidin-4-yl)-3-ethylbenzyl)-2,3-dihydro-1H-inden-4-yl)pyridin-2-yl)-5-methyl-1H-pyrazole-4-carboxylic acid]
13 | ≤ 0.5 nM | CCc1c(C(=O)O)cnn1-c1cccc(-c2cccc3c2C(Cc2ccc(C4CCN(C(=O)C5CC5)CC4)cc2C)CC3)n1 (single isomer, unassigned; (+)) [38-3 (+), (+)-1-(6-(3-(4-(1-(cyclopropanecarbonyl)piperidin-4-yl)-2-methylbenzyl)-2,3-dihydro-1H-inden-4-yl)pyridin-2-yl)-5-ethyl-1H-pyrazole-4-carboxylic acid]
14 | ≤ 0.5 nM | CCC[C@H](O)C(=O)N1CCC(c2ccc(CC3CCc4cccc(-c5cccc(-n6ncc(C(=O)O)c6CC)n5)c43)cc2CC)CC1 (single isomer, unassigned; (+)) [40-1 (+)]
15 | ≤ 0.5 nM | CCc1c(C(=O)O)cnn1-c1cccc(-c2cccc3c2C(Cc2ccc(C4CCN(C(=O)[C@H](C)O)CC4)cc2C)CC3)n1 (single isomer, unassigned; (+)) [40-2 (+)]
16 | ≤ 0.5 nM | CCC[C@H](O)C(=O)N1CCC(c2ccc(CC3CCc4cccc(-c5cccc(-n6ncc(C(=O)O)c6CC)n5)c43)c(C)c2)CC1 (single isomer, unassigned; (+)) [40-3 (+)]
17 | 1 nM | Cc1cc2c(c(-c3cccc(-n4ncc(C(=O)O)c4C(F)(F)F)n3)c1)C(Nc1ccc(C3CCN(C(=O)C4CC4)CC3)cc1C)CC2 (single isomer, unassigned; (+)) [43 (+), (+)-1-(6-(3-((4-(1-(Cyclopropanecarbonyl)piperidin-4-yl)-2-methylphenyl)amino)-6-methyl-2,3-dihydro-1H-inden-4-yl)pyridin-2-yl)-5-(trifluoromethyl)-1H-pyrazole-4-carboxylic acid]
18 | ≤ 0.5 nM | Cc1cc(C2CCN(C(=O)C3CC3)CC2)ccc1NC1CCc2cccc(-c3cccc(-n4ncc(C(=O)O)c4C)c3)c21 (single isomer, unassigned; (+)) [44 (+), (+)-1-(3-(3-((4-(1-(cyclopropanecarbonyl)piperidin-4-yl)-2-methylphenyl)amino)-2,3-dihydro-1H-inden-4-yl)phenyl)-5-methyl-1H-pyrazole-4-carboxylic acid]
19 | 1 nM | Cc1cc(C2CCN(C(=O)C3CC3)CC2)ccc1CC1CCc2cccc(-c3cccc(-n4ncc(C(=O)O)c4C)c3)c21 (single isomer, unassigned; (+)) [54. b). (+), (+)-1-(3-(3-(4-(1-(cyclopropanecarbonyl)piperidin-4-yl)-2-methylbenzyl)-2,3-dihydro-1H-inden-4-yl)phenyl)-5-methyl-1H-pyrazole-4-carboxylic acid]
